Read-outs that look alike come from different tables or passages of the source.
Assays:
[1] = test system: L. infantum MHOM/TN/80/IPT1 promastigotes; test: L. infantum promastigotes viability assay (MTS); assay type: cell-based, Leishmania infantum; conditions: Leishmania infantum, 72 h; for inhibition at 20 µM: single dose 20 µM
Description: (§1) Finally, eighteen compounds were first screened for efficacy against L. infantum MHOM/TN/80/IPT1 promastigotes at a single dose of 20 µM for 72 hours.
(§2) L. infantum MHOM/TN/80/IPT1 (WHO international reference strain) was purchased from ATCC (ATCC® 50134™) and was cultured in Evans's Modified Tobie Medium (EMTM) at 26–28 °C. To test the compounds, parasites were resuspended in RPMI-PY medium as described previously. The human monocytic cell line THP-1 (ECACC 88081201) was cultured in RPMI-1640 medium supplemented with 10% heat-inactivated Fetal Bovine Serum (FBS), 100 μg/ml streptomycin, […] and maintained in a humidified incubator at 37 °C and 5% CO2. All the cell culture reagents were purchased from Sigma-Aldrich (St. Louis, MO, USA).
Late log/stationary phase L. infantum promastigotes were resuspended in RPMI-PY medium at a density of 2.5×10^6 parasites/mL in 96-well plates (100μL/well). The anti-parasitic activity of the eighteen compounds of the library was initially investigated at a single dose of 20 μM for 72 h at 26 °C. […] Not treated parasites were included as negative control. As positive control, the anti-leishmanial drug miltefosine (Sigma-Aldrich, Milan, Italy) was used. Each condition was carried out in duplicate. To evaluate the promastigotes viability, the CellTiter 96H Aqueous Non-Radioactive Cell Proliferation Assay (Promega), based on the ability of viable cells to convert a soluble tetrazolium salt [3-(4.5-dimethylthiazol-2-yl)-5-(3-carboxymethoxy-phenyl)-2-(4-sulfophenyl)-2H-tetrazolium. MTS] to a formazan product, was performed. To this end, 20 μL of MTS/PMS (phenazinemethosulfate, Sigma-Aldrich) was added to 100 μL of culture medium and incubated at 26°C until formazan production. Absorbance was recorded on a Microplate Reader (Infinite® F50 Plus, Tecan) at 492 nm. The IC50 values were calculated using nonlinear regression curves in GraphPad Prism 8.0 (GraphPad Software,Inc., San Diego, CA). The equation used for data fitting was Y= 100/(1 + 10∧((Log IC50 −X)*HillSlope)) (hillslope not constrained), where X is the log of concentration and Y is the normalized response. […]

THP-1 cells = test: Evaluation of cytotoxicity on THP-1 cells (MTS); assay type: cell-based, human; conditions: for Cytotoxicity on THP‐1 (100, 20, 4 µM) (%): 72 h, PMA-differentiated THP-1
Description: as §1, §2
(§3) The cytotoxicity of the compounds was assessed on THP-1 cells seeded at a density of 5 × 10^5 cells per mL, 100μL/well in a 96-well plate and treated for 72 h with 20 ng/mL phorbol myristic acid (PMA) to induce differentiation into macrophages like cells. After cell adhesion to the plate, each molecule was tested at 4, 20 and 100 μM for 72 h at 37 °C.
(§4) Three selected compounds were further evaluated at different concentration, obtained from scalar dilutions 1:2 (from 100 µM to 3.12 μM) for 72 h at 37°C. The negative control (untreated THP-1 cells) and the positive control (miltefosine) were included in each experiment. Each condition was carried out in duplicate. To evaluate the compounds cytotoxicity, the CellTiter 96H Aqueous Non-Radioactive Cell Proliferation Assay (Promega), was used as described before. […]

[2] = Evaluation of cytotoxicity on THP-1 cells (MTS); assay type: cell-based, human; conditions: human, 72 h
Description: as §1, §2, §3, §4

[3] = roughly determined from 100, 20 and 4 µM, read-out: CC50 interval on THP-1 cells

Structure (SMILES): NCC(c1c[nH]c2cc(-c3ccccc3)ccc12)c1c[nH]c2cc(-c3ccccc3)ccc12 [3aa, 2,2-bis(6-phenyl-1H-indol-3-yl)ethan-1-amine]
- inhibition at 20 µM [1]: 96.2%
- Cytotoxicity on THP‐1 (100, 20, 4 µM) (%) (THP-1 cells; 4 µM): −18%
- Cytotoxicity on THP‐1 (100, 20, 4 µM) (%) (THP-1 cells; 20 µM): 97%
- Cytotoxicity on THP‐1 (100, 20, 4 µM) (%) (THP-1 cells; 100 µM): 87%

Structure (SMILES): NCC(c1c[nH]c2cc(-c3ccc(F)cc3)ccc12)c1c[nH]c2cc(-c3ccc(F)cc3)ccc12 [3ab, 2,2-bis(6-(4-fluorophenyl)-1H-indol-3-yl)ethan-1-amine]
- inhibition at 20 µM [1]: 97.1%
- Cytotoxicity on THP‐1 (100, 20, 4 µM) (%) (THP-1 cells; 4 µM): −33%
- Cytotoxicity on THP‐1 (100, 20, 4 µM) (%) (THP-1 cells; 20 µM): 97%
- Cytotoxicity on THP‐1 (100, 20, 4 µM) (%) (THP-1 cells; 100 µM): 85%

Structure (SMILES): CC(C)Cc1ccc(-c2ccc3c(C(CN)c4c[nH]c5cc(-c6ccc(CC(C)C)cc6)ccc45)c[nH]c3c2)cc1 [3ac, 2,2-bis(6-(4-isobutylphenyl)-1H-indol-3-yl)ethan-1-amine]
- inhibition at 20 µM [1]: ≤ 51.4%
- CC50 at 72 h [2, 3]: 20 to 100 µM
- Cytotoxicity on THP‐1 (100, 20, 4 µM) (%) (THP-1 cells; 4 µM): −17%
- Cytotoxicity on THP‐1 (100, 20, 4 µM) (%) (THP-1 cells; 20 µM): 1%
- Cytotoxicity on THP‐1 (100, 20, 4 µM) (%) (THP-1 cells; 100 µM): 88%

Structure (SMILES): COc1ccc(-c2ccc3c(C(CN)c4c[nH]c5cc(-c6ccc(OC)cc6)ccc45)c[nH]c3c2)cc1 [3ad, 2,2-bis(6-(4-methoxyphenyl)-1H-indol-3-yl)ethan-1-amine]
- inhibition at 20 µM [1]: 95.1%
- Cytotoxicity on THP‐1 (100, 20, 4 µM) (%) (THP-1 cells; 4 µM): −12%
- Cytotoxicity on THP‐1 (100, 20, 4 µM) (%) (THP-1 cells; 20 µM): 96%
- Cytotoxicity on THP‐1 (100, 20, 4 µM) (%) (THP-1 cells; 100 µM): 86%

Structure (SMILES): NCC(c1c[nH]c2cc(-c3cccc(Cl)c3)ccc12)c1c[nH]c2cc(-c3cccc(Cl)c3)ccc12 [3ag, 2,2-bis(6-(3-chlorophenyl)-1H-indol-3-yl)ethan-1-amine]
- inhibition at 20 µM [1]: 93.6%
- Cytotoxicity on THP‐1 (100, 20, 4 µM) (%) (THP-1 cells; 4 µM): −7%
- Cytotoxicity on THP‐1 (100, 20, 4 µM) (%) (THP-1 cells; 20 µM): 97%
- Cytotoxicity on THP‐1 (100, 20, 4 µM) (%) (THP-1 cells; 100 µM): 84%

Structure (SMILES): NCC(c1c[nH]c2cc(-c3cccc(-c4ccccc4)c3)ccc12)c1c[nH]c2cc(-c3cccc(-c4ccccc4)c3)ccc12 [3ah, 2,2-bis(6-([1,1'-biphenyl]-3-yl)-1H-indol-3-yl)ethan-1-amine]
- CC50 at 72 h [2, 3]: 20 to 100 µM
- Cytotoxicity on THP‐1 (100, 20, 4 µM) (%) (THP-1 cells; 4 µM): −20%
- Cytotoxicity on THP‐1 (100, 20, 4 µM) (%) (THP-1 cells; 20 µM): 32%
- Cytotoxicity on THP‐1 (100, 20, 4 µM) (%) (THP-1 cells; 100 µM): 77%

Structure (SMILES): NCC(c1c[nH]c2cc(-c3cccc(OCc4ccccc4)c3)ccc12)c1c[nH]c2cc(-c3cccc(OCc4ccccc4)c3)ccc12 [3ai, 2,2-bis(6-(3-(benzyloxy)phenyl)-1H-indol-3-yl)ethan-1-amine]
- Cytotoxicity on THP‐1 (100, 20, 4 µM) (%) (THP-1 cells; 4 µM): 1%
- Cytotoxicity on THP‐1 (100, 20, 4 µM) (%) (THP-1 cells; 20 µM): 90%
- Cytotoxicity on THP‐1 (100, 20, 4 µM) (%) (THP-1 cells; 100 µM): 72%

Structure (SMILES): COc1cccc(-c2ccc3c(C(CN)c4c[nH]c5cc(-c6cccc(OC)c6)ccc45)c[nH]c3c2)c1 [3aj, 2,2-bis(6-(3-methoxyphenyl)-1H-indol-3-yl)ethan-1-amine]
- inhibition at 20 µM [1]: 96.5%
- Cytotoxicity on THP‐1 (100, 20, 4 µM) (%) (THP-1 cells; 4 µM): 2%
- Cytotoxicity on THP‐1 (100, 20, 4 µM) (%) (THP-1 cells; 20 µM): 97%
- Cytotoxicity on THP‐1 (100, 20, 4 µM) (%) (THP-1 cells; 100 µM): 85%

Structure (SMILES): COc1ccccc1-c1ccc2c(C(CN)c3c[nH]c4cc(-c5ccccc5OC)ccc34)c[nH]c2c1 [3ak, 2,2-bis(6-(2-methoxyphenyl)-1H-indol-3-yl)ethan-1-amine]
- inhibition at 20 µM [1]: 96.5%
- Cytotoxicity on THP‐1 (100, 20, 4 µM) (%) (THP-1 cells; 4 µM): −4%
- Cytotoxicity on THP‐1 (100, 20, 4 µM) (%) (THP-1 cells; 20 µM): 97%
- Cytotoxicity on THP‐1 (100, 20, 4 µM) (%) (THP-1 cells; 100 µM): 86%

Structure (SMILES): COc1cccc(OC)c1-c1ccc2c(C(CN)c3c[nH]c4cc(-c5c(OC)cccc5OC)ccc34)c[nH]c2c1 [3al, 2,2-bis(6-(2,6-dimethoxyphenyl)-1H-indol-3-yl)ethan-1-amine]
- inhibition at 20 µM [1]: ≤ 51.4%
- CC50 at 72 h [2, 3]: 20 to 100 µM
- Cytotoxicity on THP‐1 (100, 20, 4 µM) (%) (THP-1 cells; 4 µM): −5%
- Cytotoxicity on THP‐1 (100, 20, 4 µM) (%) (THP-1 cells; 20 µM): 47%
- Cytotoxicity on THP‐1 (100, 20, 4 µM) (%) (THP-1 cells; 100 µM): 84%

Structure (SMILES): NCC(c1c[nH]c2cc(-c3cccc4ccccc34)ccc12)c1c[nH]c2cc(-c3cccc4ccccc34)ccc12 [3an, 2,2-bis(6-(naphthalen-1-yl)-1H-indol-3-yl)ethan-1-amine]
- inhibition at 20 µM [1]: 97.8%
- Cytotoxicity on THP‐1 (100, 20, 4 µM) (%) (THP-1 cells; 4 µM): −15%
- Cytotoxicity on THP‐1 (100, 20, 4 µM) (%) (THP-1 cells; 20 µM): 95%
- Cytotoxicity on THP‐1 (100, 20, 4 µM) (%) (THP-1 cells; 100 µM): 79%

Structure (SMILES): NCC(c1c[nH]c2cc(-c3ccc4ccccc4c3)ccc12)c1c[nH]c2cc(-c3ccc4ccccc4c3)ccc12 [3ao, 2,2-bis(6-(naphthalen-2-yl)-1H-indol-3-yl)ethan-1-amine]
- inhibition at 20 µM [1]: 95.1%
- Cytotoxicity on THP‐1 (100, 20, 4 µM) (%) (THP-1 cells; 4 µM): −13%
- Cytotoxicity on THP‐1 (100, 20, 4 µM) (%) (THP-1 cells; 20 µM): 94%
- Cytotoxicity on THP‐1 (100, 20, 4 µM) (%) (THP-1 cells; 100 µM): 76%

Structure (SMILES): CC(C)(C)OC(=O)n1cccc1-c1ccc2c(C(CN)c3c[nH]c4cc(-c5cccn5C(=O)OC(C)(C)C)ccc34)c[nH]c2c1 [3ap, di-tert-butyl 2,2'-((2-aminoethane-1,1-diyl)bis(1H-indole-3,6-diyl))bis(1H-pyrrole-1-carboxylate)]
- inhibition at 20 µM [1]: 92.6%
- Cytotoxicity on THP‐1 (100, 20, 4 µM) (%) (THP-1 cells; 4 µM): 22%
- Cytotoxicity on THP‐1 (100, 20, 4 µM) (%) (THP-1 cells; 20 µM): 97%
- Cytotoxicity on THP‐1 (100, 20, 4 µM) (%) (THP-1 cells; 100 µM): 85%

Structure (SMILES): NCC(c1c[nH]c2cc(/C=C/c3ccc(Cl)cc3)ccc12)c1c[nH]c2cc(/C=C/c3ccc(Cl)cc3)ccc12 [3ar, 2,2-bis(6-((E)-4-chlorostyryl)-1H-indol-3-yl)ethan-1-amine]
- inhibition at 20 µM [1]: 95.1%
- Cytotoxicity on THP‐1 (100, 20, 4 µM) (%) (THP-1 cells; 4 µM): −32%
- Cytotoxicity on THP‐1 (100, 20, 4 µM) (%) (THP-1 cells; 20 µM): 95%
- Cytotoxicity on THP‐1 (100, 20, 4 µM) (%) (THP-1 cells; 100 µM): 66%

Structure (SMILES): NCC(c1c[nH]c2ccc(-c3ccccc3)cc12)c1c[nH]c2ccc(-c3ccccc3)cc12 [3ba, 2,2-bis(5-phenyl-1H-indol-3-yl)ethan-1-amine]
- inhibition at 20 µM [1]: 96.8%
- Cytotoxicity on THP‐1 (100, 20, 4 µM) (%) (THP-1 cells; 4 µM): −22%
- Cytotoxicity on THP‐1 (100, 20, 4 µM) (%) (THP-1 cells; 20 µM): 98%
- Cytotoxicity on THP‐1 (100, 20, 4 µM) (%) (THP-1 cells; 100 µM): 91%

Structure (SMILES): CCCCCCCCCCCCCCCCOP(=O)([O-])OCC[N+](C)(C)C [Milt, miltefosine, reference compound]
- IC50 ([1]; scalar dilutions 2:3 from 20 to 1.17 µM, mean (95% CI)): 3.7 µM
- inhibition at 20 µM [1]: 98.5%
- CC50 at 72 h ([2]; scalar dilutions 1:2 from 100 to 3.12 µM, mean (95% CI), read-out: THP‐1 CC50 (µM) (95% CI)): 36.6 µM
- Cytotoxicity on THP‐1 (100, 20, 4 µM) (%) (THP-1 cells; 4 µM): −35%
- Cytotoxicity on THP‐1 (100, 20, 4 µM) (%) (THP-1 cells; 20 µM): 6%
- Cytotoxicity on THP‐1 (100, 20, 4 µM) (%) (THP-1 cells; 100 µM): 99%
- SI (Selectivity index = CC50/IC50) (THP-1 cells; CC50 THP-1 (72 h) / IC50 L. infantum promastigotes (72 h)): 9.8
